US8273787B2, “Activated cytotoxic compounds for attachment to targeting molecules for the treatment of mammalian disease conditions” (Onconova Therapeutics, Inc, priority 2006, dated 2012)

Assays:
RPMI 8266 = experiment: growth inhibition, multiple myeloma cell line RPMI 8266; format: cell-based; settings: Homo sapiens, RPMI8266; RPMI 8266, multiple myeloma, CD38 + CD138 + CD20 −
Experimental: (§1) Two compounds were selected from our library of cytotoxic molecules for immunoconjugation since they both have IC50 values in the low nanomolar range. Various tumor cell lines (ATCC) were treated for 96 hours in the presence of increasing concentrations of each compound and the total number of viable cells remaining was determined after 96 hours of exposure. The IC50 value was determined to be the amount of drug required to inhibit the growth of each cell line 50% as compared to vehicle treated cells.
(§2) Pellat-Deceunynk, C., et al., Human Myeloma Cell Lines As A Tool For Studying The Biology Of Multiple Myeloma: A Reappraisal 18 Years After, Blood 86(10):4001-2 (1995); Gooding, R. P., et al., Phenotypic And Molecular Analysis Of Six Human Cell Lines Derived From Patients With Plasma Cell Dyscrasia, British Journal of Haematology 106:669-688 (1999).

RF48 = experiment: 96 hour growth inhibition, RF48; format: cell-based; settings: RF48, GASTRIC
Experimental: as §1

Sk-OV-3 = experiment: 96 hour growth inhibition, Sk-OV-3; format: cell-based; settings: Homo sapiens, Sk-OV-3, OVARIAN
Experimental: as §1

2008 (PARENTAL) = experiment: growth inhibition, 2008 (parental); format: cell-based; settings: ovarian
Experimental: as §1
(§3) Another extremely important predictive factor is the ability of these compounds to kill cell lines overexpressing multiple drug resistance (MDR) genes. A very high percentage of cancer patient relapses are due to some form of resistance to traditional chemotherapy. Of these patients, the vast majority express one or more of the MDR genes within the ABC transport gene family. Overexpression of these genes increases the efflux of compounds that are recognized by these pumping systems. […] Onconova's benzyl styryl sulfone compounds are not recognized by the MDR-1 gene and therefore provide an advantage over other highly toxic drugs including but not limited to the taxanes, doxorubicin, etoposide, and vinca-alkaloids. […] MES-SA/Dx5, uterine sarcoma, and […], ovarian, are both classical multidrug resistant cell lines that are cross resistant to the taxanes and anthracyclins. Harker, W G, and Sikic, B. I., Multidrug (Pleiotropic) Resistance In Doxorubicin-Selected Variants Of The Human Sarcoma Cell Line MES-SA, Cancer Res. 45(9):4091-6 (1985). MES-SA/Dx5 and Apr. […] Fujimori, A., et al., Mutation At The Catalytic Site Of Topoisomerase I In CEM/C2, A Human Leukemia Cell Line Resistant To Camptothecin, Cancer Res. 55(6): 1339-46 (1995). ON 01500 and ON 013100, for example, are both extremely active against these resistant cell lines.

SW480 = experiment: 96 hour growth inhibition, SW480; format: cell-based; settings: Homo sapiens, SW480, COLO-RECTAL
Experimental: as §1

MOLT-4 = experiment: 96 hour growth inhibition, MOLT-4; format: cell-based; settings: Homo sapiens, MOLT-4, T-lymphoblastic:ALL
Experimental: as §1

SK-MEL-28 = experiment: 96 hour growth inhibition, SK-MEL-28; format: cell-based; settings: Homo sapiens, SK-MEL-28, MELANOMA
Experimental: as §1

H157 = experiment: 96 hour growth inhibition, H157; format: cell-based; settings: Homo sapiens, NCI-H157, H157, NSCLC
Experimental: as §1

2008/17/4 (RESISTANT) = experiment: growth inhibition, 2008/17/4 (resistant); format: cell-based; settings: for RSIST-ANCE: 2008/17/4 (RESISTANT) versus 2008 (PARENTAL); for IC50: 2008/17/4 (RESISTANT), ovarian, multidrug resistant
Experimental: as §1, §3

HCT-15 = experiment: 96 hour growth inhibition, HCT-15; format: cell-based; settings: Homo sapiens, HCT-15, COLO-RECTAL
Experimental: as §1

CEM = experiment: 96 hour growth inhibition, CEM; format: cell-based; settings: Homo sapiens, CCRF-CEM
Experimental: as §1, §3

MES-SA (PARENTAL) = experiment: growth inhibition, MES-SA (parental); format: cell-based; settings: Homo sapiens, uterine sarcoma
Experimental: as §1, §3

AGS = experiment: 96 hour growth inhibition, AGS; format: cell-based; settings: Homo sapiens, GASTRIC
Experimental: as §1

OPM-2 = experiment: growth inhibition, multiple myeloma cell line OPM-2; format: cell-based; settings: Homo sapiens; OPM-2, multiple myeloma, CD38 + CD138 + CD20 −
Experimental: as §1, §2

Raji = experiment: 96 hour growth inhibition, Raji; format: cell-based; settings: Homo sapiens, Burkitt's Lymphoma (B-cell)
Experimental: as §1

DU145 = experiment: 96 hour growth inhibition, DU145; format: cell-based; settings: Homo sapiens, DU-145, DU145, PROSTATE (AR−)
Experimental: as §1

HCT-116 = experiment: 96 hour growth inhibition, HCT-116; format: cell-based; settings: Homo sapiens, HCT-116, COLO-RECTAL
Experimental: as §1

[1] = tested on: Human breast carcinoma (BT20) cells; experiment: nude mouse xenograft model, BT20; format: in vivo; settings: 10 mg/kg by IP injections, Q2Dx3
Experimental: Human breast carcinoma (BT20) cells were injected subcutaneously into female athymic nude mice (ncr/ncr). […] The average tumor volume and body weights were determined on the indicated days.
BT20 cells were injected in female nude mice. The mice (N=5-8) were treated with ON 01500 (Panel A.) at 10 mg/kg by IP injections or Vehicle alone (DMSO) every other day Q2Dx3.

[2] = tested on: normal human umbilical vein endothelial cells; experiment: FACS cell cycle, HUVEC; format: cell-based; settings: HUVECs, 20 nM, treated over 72 hours
Experimental: Treatment of cancer cells with either of these two compounds will result in a mitotic arrest followed by the onset of apoptosis in a dose dependent manner. FACS analysis of normal and tumor cells treated with ON 01500 and ON 013100. A. Cells treated for 24 hrs with ON 01500. B. Cells treated with ON 013100 (20 nM) and harvested at various time points thereafter. FIG. 6. […] ON 013100 treatment of normal human umbilical vein endothelial cells (HLVECs) results in a similar cell cycle distribution. FIG. 6.B illustrates cells that have been treated over 72 hours. […] This characteristic should greatly increase the “therapeutic window” of the resulting immunoconjugates since there are now two layers of selectivity. The first being the selective binding and release of the cytotoxic compound only in cells expressing the tumor specific antigen, and the innate selectivity of the compounds themselves. This will provide additional protection of the patient if non-selective binding or release occurs.

SMILES | IC50 (RPMI 8266) [nM] | IC50 (RF48) [nM] | IC50 (Sk-OV-3) [nM] | IC50 (2008 (PARENTAL)) [nM] | IC50 (SW480) [nM] | IC50 (MOLT-4) [nM] | IC50 (SK-MEL-28) [nM] | IC50 (H157) [nM] | RSIST-ANCE (2008/17/4 (RESISTANT)) | IC50 (2008/17/4 (RESISTANT)) [nM] | IC50 (HCT-15) [nM] | IC50 (CEM; CEM (PARENTAL)) [nM] | IC50 (CEM; CEM, […], 96 hours) [nM] | IC50 (MES-SA (PARENTAL)) [nM] | IC50 (AGS) [nM] | IC50 (OPM-2) [nM] | IC50 (Raji) [nM] | IC50 (DU145) [nM] | IC50 (HCT-116) [nM] | other results
COc1cc(OC)c(/C=C/S(=O)(=O)Cc2ccc(OC)c(N)c2)c(OC)c1 [ON 01500, (E)-2,4,6-trimethoxystyryl-4-methoxy-3-aminobenzylsulfone] | 3 | 1 | 3 | 3 | 6 | 4 | 5 | 4 | 1 | 3 | 5 | 10 | 10 | 4 | 3 | 3 | 2 | 5 | 6 | weight loss or toxicity [1]: without any signs of weight loss or toxicity
COc1cc(OC)c(/C=C/S(=O)(=O)Cc2ccc(OC)c(O)c2)c(OC)c1 [ON 013100, (E)-5-((2,4,6-trimethoxystyrylsulfonyl)methyl)-2-methoxyphenol] | 5 | 1 | 4 | 5 | 5 | 1.5 | 7 | 7 | 1.3 | 6 | 7 | 4 | 4 | 5 | 5 | 4 | 1 | 5 | 6 | cell cycle distribution (FACS) [2]: arrest in the G1 stage of the cell cycle
